The values below come from patent US20120237937A1, “METHODS TO DETECT CANCER IN ANIMALS” (UNIVERSITY OF LOUISVILLE RESEARCH FOUNDATION, INC., priority 2009, published 2012).

Molecules are shown by their SMILES. Where only a bound is given, the exact number is not on record here.

Data set [1] can be described thus: NMR 13C-isotopomer profiling of TCA extracts of paired non-cancerous and cancerous lung tissues. The conditions noted are these: for relative 13C abundance (HSQC peak volume normalized to total succinate concentration): patients #6-10; for % enrichment: human. The protocol:
Lung cancer patients were recruited based on the criteria of surgical eligibility and no history of diabetes. Each patient was consented in accordance with the U.S. HIPAA regulations. The following patient protocol was approved by the Internal Review Board at the University of Louisville. Ten grams uniformly ^13C labeled glucose ([U-^13C]-Glc or ^13C6-Glc or ^13C6-Glucose) in sterile saline solution were infused i.v. over a 30 min time period into each patient in the pre-op room approximately 3 or 12 hr prior to resection. Whole blood samples were collected into a vacutainer containing the anticoagulant K3EDTA or K3-EDTA before and after [U-^13C]-Glc infusion as well as after the surgery. Additional blood samples were collected 3 and 12 hr after the [U-^13C]-Glc infusion for the 12 hr treatment cases. […] The blood samples were placed on ice immediately after collection and centrifuged at 4° C. at 3,500×g for 15 min to recover the plasma fraction. All blood samples were aliquoted and flash-frozen in liquid N2 within 30 min of collection. Potassium EDTA was used as an anti-coagulant to minimize metabolic artifacts associated with anti-coagulation; it also served to remove the influence of interfering cations such as paramagnetic Fe^3+ and Cu^2+ for NMR analysis.
All timings from first incision to cutting arteries and veins to the lung were recorded so that the period of ischemia could be determined immediately after tissue resection, excess blood was blotted from the tissue, and small pieces of non-cancerous and tumor tissue were cut by the surgeon and freeze-clamped in liquid N2 within 5 minutes of removal from the chest cavity. The freezing process arrested metabolic changes almost instantaneously. […] Non-cancerous tissue was removed at least 2 cm from the tumor margin and certified to be tumor-free by trained pathologists. Subsequent pathological evaluation also confirmed tumor status and provided the tumor stage. All samples were stored at −80° C. until further processing for analysis.
Frozen tissue samples were pulverized into <10 μm particles in liquid N2 using a Spex freezer mill (Spex CertiPrep, Inc., Metuchen, N.J.) to maximize efficiency for subsequent extraction while maintaining biochemical integrity. An aliquot of the frozen powder was lyophilized before extraction for metabolites.
Water-soluble or polar metabolites were extracted from lyophilized tissue powders (4-48 mg) in ice-cold 10% trichloroacetic acid (TCA) (v/w minimum 40/1) while leaving proteins, nucleic acids, and polysaccharides behind, as described previously (Kim et al. Antioxidants & Redox Signaling 2001, 3:361-373). The extraction was performed twice for quantitative recovery. An aliquot (150 μl) of plasma samples were made to final 10% TCA concentration to precipitate proteins and recover metabolites in the supernatant. TCA was then removed from tissue or plasma extracts by lyophilization. The dry pellet was dissolved in nanopure water and two small aliquots were lyophilized for silylation and GC-MS analysis while the remaining bulk was passed through a Chelex 100 resin column (Bio-Rad Laboratories, Inc., Hercules, Calif.) to neutralize and remove interfering multivalent cations for NMR analysis.
The ^1H reference standard, DSS (2,2-Dimethyl-2-silapentane-5-sulfonate sodium salt) was added (30 or 50 nmoles) to the TCA extracts of tissue or plasma samples, respectively. […]

Another data set has as its system lung tumor. Nature of the data set: Response of lung lesions of patient 25b to Erlotinib. The note with it: Stage I. Type of data set: in vivo, human. An excerpt: The horizontal dotted line represents a ratio of 1. […] See also, Fan et al. (2009) Exp. Molec. Pathol. 87, 83-86.
Data set [2] can be described thus: Isotopic enrichment in SCID mouse tissue lactate and glucose by 1D 1H NMR. The conditions noted are these: SCID, mouse, in vivo, 15 min. It counts as in vivo. The protocol: (§1) A 20% solution of glucose in normal saline was sterile-filtered. 100 μL of this solution, or a 1:10 dilution (2%) were injected into the tail vein of a restrained mouse without anesthesia.
Mice were sacrificed at different times post glucose injection, and the following organs were dissected sequentially: lung, heart, liver, kidney, brain, spleen, and thigh muscle. Dissected tissue was flash frozen in liquid N2 within 1 minute of killing the animal.
Frozen tissues were ground in liquid N2 to <10 μm particles in a 6750 Freezer/Mill (Retsch, Inc., Newtown, Pa.) and extracted for soluble and lipidic metabolites as follows. Up to 20 mg of frozen tissue powder in 15 ml polypropylene conical centrifuge tube (Sarstedt, Newton, N.C.) containing 3 mm diameter glass beads was vigorously mixed with 2 ml of cold acetonitrile (mass spectrometry grade, stored at −20° C.) to denature proteins, followed by addition of 1.5 ml nanopure water, and 1 ml HPLC-grade chloroform (Fisher Scientific). The mixture was shaken vigorously until achieving a milky consistency followed by centrifugation at 3,000 g for 20 minutes at 4° C. to separate the polar (top), lipidic (bottom), and tissue debris layers (interface). The polar and lipidic layers were recovered sequentially and the remaining cell debris was extracted again with 0.5 ml chloroform:methanol:butylated hydroxytoluene (BHT) (2:1:1 mM) which was pooled with the lipidic fraction. All three fractions were vacuum-dried in a speedvac device (Vacufuge, Eppendorf, New York, N.Y.) and/or by lyophylization. The dry weight of tissue debris was obtained for normalization of metabolite content. The polar extracts were redissolved in 100% D2O containing 30 nmol perdeuterated DSS (2,2-dimethyl-2-silapentane-5-sulfonate, Cambridge Isotope Laboratories, Andover, Mass.) as internal chemical shift and concentration reference for NMR measurement.
(§2) NMR spectra were recorded at 14.1 T on a Varian Inova spectrometer equipped with a 5 mm inverse triple resonance cold probe, at 20° C. 1D NMR spectra were recorded with an acquisition time of 2 s and a recycle time of 5 sec. Concentrations of metabolites and ^13C incorporation were determined by peak integration of the ^1H NMR spectra referenced to the DSS methyl groups, with correction for differential relaxation, as previously described (See, Lane et al. (2008) Biophysical Tools for Biologists. 84: 541-588; Fan et al. (2008) Progress in NMR Spectroscopy 52: 69-117; Lane et al. (2007) Metabolomics 3: 79-86.). ^1H Spectra were typically processed with zero filling to 131 k points, and apodized with an unshifted Gaussian and a 0.5 Hz line broadening exponential.
The same extracts from FIG. 9 were analyzed by NMR to complement the GC-MS analysis. The ^13C enrichment into glucose/glucose-6-phosphate and lactate was determined by 1D ^1H NMR. The enrichments at 15 and 30 minutes post infusion were substantial in all tissues, and peak lactate enrichments differed according to the metabolic activity or glucose uptake rates of the different tissues (Table 7).
Lac measured at C3, G1c measured at C1α by NMR

A short description of data set [3]: GC-MS quantification of total and 13C-enriched metabolites in paired normal and cancerous lung tissues.
Data set [4] in a line: Time course of plasma 13C-glucose and 13C-lactate in SCID mice by NMR. It counts as in vivo, SCID mouse. The conditions noted are these: mouse, in vivo. The protocol: as §1
Approximately 50 μL samples of blood were taken intraorbitally at timed intervals, chilled and separated into plasma and whole blood by centrifugation at 4° C. at 3,000 g for 5 minutes. Plasma was flash frozen in liquid N2 for storage prior to workup.
Twenty to thirty μl of plasma was made to 10% trichloroacetic acid (TCA) and centrifuged at 4° C., at ≧22,000 g for 20 minutes to remove denatured proteins. The polar supernatant was lyophilized to remove TCA before preparation for NMR and GC-MS analysis.
as §2
The two SCID mice were injected via the tail vein with […] [U-^13C]-glucose. Blood was sequentially taken intraorbitally, and analyzed by NMR as described in the NMR Spectroscopy section. To assess the optimal time for metabolizing the ^13C6-glucose in mice, plasma samples were taken at 15-minute intervals and processed for NMR analysis. […] The initial glucose enrichment ranged from 30 to >50% depending on the size of the mouse, which means that the plasma glucose concentration was roughly doubled immediately after the bolus [U-^13C]-glucose injection. The % enrichment for glucose decreased rapidly and asymptotically within one hour, presumably via the normal homeostatic mechanism. […] The initial rate of ^13C lactate production was approximately equal to the initial rate of glucose consumption, but then decayed after about 20 minutes.

A short description of data set [5]: GC-MS analysis of 13C-mass isotopomers of lactate in plasma after [U-13C]-glucose infusion. The note with it: in excess of natural abundance. Type of data set: in vivo, human.
Where [6] appears, read: patient #6 (sqC, grade II), cancer tissue.
[7] abbreviates: patient #6 (sqC, grade II), normal tissue.
Where [8] appears, read: patient #7 (adenoC, grade II), cancer tissue.
The mark [9] stands for this setting: patient #7 (adenoC, grade II), normal tissue.
Setting [10] is: patient #8 (sqC, grade II-III), cancer tissue.
Setting [11] is: patient #8 (sqC, grade II-III), normal tissue.
Where [12] appears, read: patient #9 (sqC, grade II), cancer tissue.
[13] abbreviates: patient #9 (sqC, grade II), normal tissue.
Setting [14] is: patient #10 (sqC, grade III), cancer tissue.
[15] abbreviates: patient #10 (sqC, grade III), normal tissue.

As for `O=C(O)[13CH2][13CH2]C(=O)O` [C-2,3-succinate], the “relative 13C abundance (HSQC peak volume normalized to total succinate concentration)” value came to 0.6±0.7 in data set [1] (non-cancerous tissues) and 3.6±1.2 in data set [1] (tumor tissues).
Consider `C#Cc1cccc(Nc2ncnc3cc(OCCOC)c(OCCOC)cc23)c1` [Erlotinib], for which the response of lesion entry in the data set on lung tumor (lower lobe (LL) lesion) is listed as “responded”; with lung tumor (upper lobe (UL) lesion), “did not”.
In the case of `C[C@H](N)C(=O)O` [Total Ala, alanine], the “% enrichment” value in data set [1] (in vivo) is reported as at most 15%. For the same compound, the “% 13C isotopic enrichment in tissue” value in data set [2] is recorded as 16%. Besides, the “metabolite content of lung tissue” value was 15.76 μmole/g dry weight in data set [3] (setting [6]); 4.67 μmole/g dry weight in data set [3] (setting [7]); 6.44 μmole/g dry weight in data set [3] (setting [8]); 6.25 μmole/g dry weight in data set [3] (setting [9]); 9.28 μmole/g dry weight in data set [3] (setting [10]); 4.97 μmole/g dry weight in data set [3] (setting [11]). The “metabolite content of lung tissue” value was 15.08 μmole/g dry weight in data set [3] (setting [12]), 5.14 μmole/g dry weight in data set [3] (setting [13]), 27.34 μmole/g dry weight in data set [3] (setting [14]) and 5.42 μmole/g dry weight in data set [3] (setting [15]).
For `N[C@@H](CC(=O)O)C(=O)O` [Total Asp, aspartate], in data set [1] (in vivo), the “% enrichment” value is listed as under 8%. In addition, the “metabolite content of lung tissue” value in data set [3] (setting [6]) was 4.27 μmole/g dry weight; in data set [3] (setting [7]) it was 1.32 μmole/g dry weight; in data set [3] (setting [8]), 3.09 μmole/g dry weight; in data set [3] (setting [9]), 3.83 μmole/g dry weight; in data set [3] (setting [10]), 1.51 μmole/g dry weight; in data set [3] (setting [11]) it was 2.67 μmole/g dry weight. Further, the “metabolite content of lung tissue” value is 4.78 μmole/g dry weight in data set [3] (setting [12]), 1.94 μmole/g dry weight in data set [3] (setting [13]), 1.66 μmole/g dry weight in data set [3] (setting [14]) and 2.27 μmole/g dry weight in data set [3] (setting [15]).
`O[13CH2][13C@H]1O[13CH](O)[13C@H](O)[13C@@H](O)[13C@@H]1O` (some centres unmarked) [[U-^13C]-Glucose, uniformly ^13C labeled glucose, reference compound]: the “% 13C enrichment of metabolite in lung tissue” value in data set [1] (in vivo) was 15.5%. Moreover, in data set [4], the “apparent half-life in plasma” value is 16 to 22 min and the “initial % 13C enrichment in plasma” value was found to be 65%.
Turning to `[13CH3][13CH](O)[13C](=O)O` (centres unmarked) [[U-^13C]-Lactate, uniformly ^13C labeled lactate], the “Percentage distribution of 13C-mass isotopomers of lactate in plasma” value in data set [5] (patient #6, [U-13C]-glucose 3 h) was 1.89%; in data set [5] (patient #7, [U-13C]-glucose 3 h) it was 4.84%; in data set [5] (patient #8, [U-13C]-glucose 3 h) it was 3.31%; in data set [5] (patient #9, [U-13C]-glucose 3 h), 3.47%; in data set [5] (patient #10, [U-13C]-glucose 3 h), 6.37%.
